Measurements taken from patent publication US9783551B2, “Pyranochromenyl phenol derivative, and pharmaceutical composition for treating metabolic syndrome or inflammatory disease” (GLACEUM, INC., priority 2013, dated 2017).

Legend:
[1] = system: DIO mice; assay: Anti-obesity effect for DIO mice (body weight); type: in vivo, C57BL/6 mice; settings: Mus musculus, 672 h, 4 weeks, oral gavage once daily
Experimental: (§1) Five-week-old female C57BL/6 mice (Narabio Co., Ltd.) were purchased and fed with only high-fat diet for at least 10 weeks to produce diet induced obesity ([…]) mice. Samples were exactly taken from Preparation Example 1 (glabridin) and the compounds of Examples of the present invention (Compounds 1 to 5, 7, 9, 11, 14 to 16, 21, and 23) according to the administration dose and put into Falcon tubes, 3 ml of a 0.5% methyl cellulose aqueous solution was added thereto and a vortex mixer was used to primarily mix the ingredients in a soft manner, and then a homogenizer (30,000 rpm, Ultra-Turrax® T10 Basic, IKA) was used to treat the sample for 3 minutes while 1.5 ml of a 0.5% methyl cellulose aqueous solution was added thereto. The sample thus prepared was administered through oral gavage using a disposable plastic syringe once daily for 28 days (4 weeks). The body weight was measured twice a week while the DIO mice were bred in this manner. Based on the data thus calculated, the anti-obesity effect (%) was calculated according to the equation defined as follows. Anti-Obesity Effect={(Body weight of control group)−(Body weight of experimental group)}/(Body weight of control group)×100

[2] = molecular target: PTP1B (Homo sapiens (Human), UniProt P18031); assay: Experiment of PTP1B inhibition (p-NPP dephosphorylation); type: biochemical; settings: 2 mM p-NPP substrate, 30° C., 30 minutes
Chain of PTP1B (P18031 whole entry, species assumed): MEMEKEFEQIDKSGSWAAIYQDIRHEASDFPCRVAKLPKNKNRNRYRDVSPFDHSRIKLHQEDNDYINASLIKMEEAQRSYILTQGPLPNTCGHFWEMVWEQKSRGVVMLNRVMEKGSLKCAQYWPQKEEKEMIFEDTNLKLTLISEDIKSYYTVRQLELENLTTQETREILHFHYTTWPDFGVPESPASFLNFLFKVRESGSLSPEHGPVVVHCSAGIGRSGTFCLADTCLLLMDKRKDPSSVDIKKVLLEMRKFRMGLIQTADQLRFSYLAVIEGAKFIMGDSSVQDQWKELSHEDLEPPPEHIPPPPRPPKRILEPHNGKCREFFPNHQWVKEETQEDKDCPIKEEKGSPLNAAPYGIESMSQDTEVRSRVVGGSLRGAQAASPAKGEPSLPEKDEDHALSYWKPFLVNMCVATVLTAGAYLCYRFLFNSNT
Excerpt: With respect to PTP1B, the degrees of inhibition (IC50 The half maximal inhibitory concentration) of glabridin, and compounds of Preparation Example 2 (Compound 1), Example 2 (Compound 3), Example 3 (Compound 4), Example 4 (Compound 5), Example 13 (Compound 14), Example 14 (Compound 15), Example 15 (Compound 16), Example 17 (Compound 18), Example 18 (Compound 19) and Example 20 (Compound 21) were compared to each other. For this purpose, the degree of inhibition activity for PTP1B was investigated by using 2 mM p-nitrophenyl phosphate (p-NPP) as a substrate to measure the dephosphorylation degree. First, PTP1B diluted with distilled water was reacted with 2 mM p-nitrophenyl phosphate {p-NPP, 0.1 M NaCl, 1 mM EDTA, 50 mM citrate pH 6.0, and 1 mM dithiothreitol (DTT)} and Compound 1 at various concentrations at 30° C. for 30 minutes, and then the reaction was terminated with a 1 N-sodium hydroxide (NaOH) solution. The absorbance of the samples thus prepared was measured to confirm the inhibition degree (IC50: The half maximal inhibitory concentration) for PTP1B activity according to the concentration of Compound 1. Even for glabridin, Compound 3, Compound 4, Compound 5, Compound 14, Compound 15, Compound 16, Compound 18, Compound 19, and Compound 21, the same measurement was performed.

[3] = system: BV2 microglia cells; assay: BV2 cell NO assay (LPS-induced NO production, Griess reagent); type: cell-based; settings: Mus musculus, BV-2, LPS 1 μg/ml, 24 hours
Experimental: (§2) After the pretreatment, 0.5 mg/ml of the MTT (Sigma, M2128) reagent was further added thereto. After the cells were cultured in a 5% CO2 incubator, the supernatant was discarded, 150 μl of DMSO was added and was shaken for 30 minutes, and an ELISA micro plate reader (Bio Rad Laboratories Inc., California, USA, Model 680) was used to measure the absorbance at a wavelength of 540 nm. All the experimental values were calculated as an average value of three repeated experimental values of the cell protection rate for the control group, and an experiment of suppressing the NO production for each compound was carried out at a concentration in which no cytotoxicity was shown.
After the reaction, an ELISA micro plate reader (Bio Rad Laboratories Inc., California, USA, Model 680) was used to measure the absorbance at a wavelength of 540 nm. The suppression rate was calculated as a difference in amount of NO produced between the control group and the experimental group, and as shown in the following Table 6 and FIG. 6, Compounds 4, 5, 15, 16, 18, and the like of the present invention were excellent in the effect of suppressing the production of NO, and the effect is also about 5 times to about 9 times better than that of glabridin.

[4] = system: RAW264.7 macrophages; assay: RAW264.7 macrophage NO assay (LPS-induced NO production, Griess reagent); type: cell-based
Experimental: as §2, with “pretreatment,” for “pretreatment, 0.5 mg/ml of”, “reagent at a concentration of 0.5 mg/ml” for “reagent”, “incubator for 4 hours,” for “incubator,”
After the reaction, an ELISA micro plate reader (Bio Rad Laboratories Inc., California, USA, Model 680) was used to measure the absorbance at a wavelength of 540 nm. The suppression rate was calculated as a difference in amount of NO produced between the control group and the experimental group, and as shown in the following Table 7, Compounds 4, 5, 15, 16, 18, and the like of the present invention were excellent in the effect of suppressing the production of NO.

[5] = system: DIO mice; assay: Organ weights and blood biochemistry of DIO mice after 28 days of administration; type: in vivo, C57BL/6 mice
Experimental: as §1
After the experiment was performed for 28 days (4 weeks) as described above, blood was simultaneously taken while the experimental animal was finally sacrificed, and each of the organs (liver, heart, kidney, pancreas, fat tissues and the like) was removed to measure the weight and observe peculiar matters.
In Table 3, { }, ( ) and the like were used in order to differentiate experiments which had been performed at different periods. Experiments without the parenthesis were those simultaneously performed under the same conditions.

[6] = 150 mg/kg, experiment without parenthesis

CCCCc1ccc(C2COc3c(ccc4c3CCC(C)(C)O4)C2)c(O)c1 (stereo not shown) [Compound 7, 3-(2-hydroxy-4-butylphenyl)-8,8-dimethyl-2,3,4,8,9,10-hexahydropyrano [2,3-f] chromene]
inhibition in vivo at 150 mg/kg [1]: 14%

Cc1cc(O)c(C2COc3c(ccc4c3CCC(C)(C)O4)C2)cc1C (stereo not shown) [Compound 11, 3-(2-hydroxy-4,5-dimethylphenyl)-8,8-dimethyl-2,3,4,8,9,10-hexahydropyrano [2,3-f] chromene]
inhibition in vivo at 150 mg/kg [1]: 8%

CCCCOc1ccc(C2COc3c(ccc4c3CCC(C)(C)O4)C2)c(O)c1 (stereo not shown) [Compound 18, 3-(2-hydroxy-4-butoxyphenyl)-8,8-dimethyl-2,3,4,8,9,10-hexahydropyrano [2,3-f] chromene]
IC50 [2]: 3.4 µM | IC50 [3]: 2.8 µM | IC50 ([4]; Mus musculus, RAW264.7, NO production, LPS 1 μg/ml, 24 hours): 5.6 µM | effect of suppressing the production of NO ([4]; RAW264.7 macrophages, in words): excellent

CC1(C)CCc2c(ccc3c2OC[C@@H](c2ccc(O)cc2O)C3)O1 [Compound 1, 3″,4″-dihydroglabridin]
inhibition in vivo at 150 mg/kg [1]: 8% | ALT (U/L) [5, 6]: 34 U/L | AST (U/L) [5, 6]: 93 U/L | BMI [5, 6]: 3.8 | FFA (μEq/L) [5, 6]: 1400 μEq/L | Fat (g), weight of fat removed around the epididymis and the kidney [5, 6]: 2.07 g | LDL [5, 6]: 11 mg/dL | Liver (g), weight of liver [5, 6]: 1.24 g | IC50 [2]: 46 µM

COCCc1ccc(C2COc3c(ccc4c3CCC(C)(C)O4)C2)c(O)c1 (stereo not shown) [Compound 9, 3-(2-hydroxy-4-(2-methoxyethyl)phenyl)-8,8-dimethyl-2,3,4,8,9,10-hexahydropyrano [2,3-f] chromene]
inhibition in vivo at 150 mg/kg [1]: 10%

CCCCCOc1ccc(C2COc3c(ccc4c3CCC(C)(C)O4)C2)c(O)c1 (stereo not shown) [Compound 19, 3-(2-hydroxy-4-n-pentoxyphenyl)-8,8-dimethyl-2,3,4,8,9,10-hexahydropyrano [2,3-f] chromene]
IC50 [2]: 1.2 µM

CC1(C)CCc2c(ccc3c2OCC(c2ccccc2O)C3)O1 (stereo not shown) [Compound 2, 3-(2-hydroxyphenyl)-8,8-dimethyl-2,3,4,8,9,10-hexahydropyrano [2,3-f] chromene]
inhibition in vivo at 200 mg/kg [1]: 8%

COCOc1ccc(C2COc3c(ccc4c3CCC(C)(C)O4)C2)c(O)c1 (stereo not shown) [Compound 21, 3-(2-hydroxy-4-(methoxymethoxy)phenyl)-8,8-dimethyl-2,3,4,8,9,10-hexahydropyrano [2,3-f] chromene]
inhibition in vivo at 150 mg/kg [1]: 16% | ALT (U/L) [5, 6]: 46 U/L | AST (U/L) [5, 6]: 104 U/L | BMI [5, 6]: 3.6 | FFA (μEq/L) [5, 6]: 1520 μEq/L | Fat (g), weight of fat removed around the epididymis and the kidney [5, 6]: 2.13 g | LDL [5, 6]: 12 mg/dL | Liver (g), weight of liver [5, 6]: 1.11 g | IC50 [2]: 2.3 µM

Cc1ccc(C2COc3c(ccc4c3CCC(C)(C)O4)C2)c(O)c1 (stereo not shown) [Compound 3, 3-(2-hydroxy-4-methylphenyl)-8,8-dimethyl-2,3,4,8,9,10-hexahydropyrano [2,3-f] chromene]
inhibition in vivo at 200 mg/kg [1]: 19% | ALT (U/L) ([5]; 200 mg/kg, { } experiment): {73} U/L | AST (U/L) ([5]; 200 mg/kg, { } experiment): {152} U/L | BMI ([5]; 200 mg/kg, { } experiment): {3.5} | FFA (μEq/L) ([5]; 200 mg/kg, { } experiment): {2390} μEq/L | Fat (g), weight of fat removed around the epididymis and the kidney ([5]; 200 mg/kg, { } experiment): {1.62} g | LDL (mg/dL) ([5]; 200 mg/kg, { } experiment): {22} mg/dL | Liver (g), weight of liver ([5]; 200 mg/kg, { } experiment): {1.53} g | IC50 [2]: 7 µM

COc1ccc(C2COc3c(ccc4c3CCC(C)(C)O4)C2)c(O)c1 (stereo not shown) [Compound 14, 3-(2-hydroxy-4-methoxyphenyl)-8,8-dimethyl-2,3,4,8,9,10-hexahydropyrano [2,3-f] chromene]
inhibition in vivo at 150 mg/kg [1]: 12% | ALT (U/L) [5, 6]: 51 U/L | AST (U/L) [5, 6]: 131 U/L | BMI [5, 6]: 3.9 | FFA (μEq/L) [5, 6]: 2160 μEq/L | Fat (g), weight of fat removed around the epididymis and the kidney [5, 6]: 2.23 g | LDL [5, 6]: 13 mg/dL | Liver (g), weight of liver [5, 6]: 1.19 g | IC50 [2]: 6.5 µM

CCC1(CC)CCc2c(ccc3c2OCC(c2ccc(OC)cc2O)C3)O1 (stereo not shown) [Compound 23, 3-(2-hydroxy-4-methoxyphenyl)-8,8-diethyl-2,3,4,8,9,10-hexahydropyrano [2,3-f] chromene]
inhibition in vivo at 200 mg/kg [1]: 11%
